Entries after “also recorded” stand apart in the source; their conditions may differ.
Biological target: T1, GluD2-A654T-D535E (Rattus norvegicus, UniProt Q63226, A654T/D535E)
T1 construct: expressed in transfected cells; host or cells: Xenopus laevis oocytes injected with cRNA
T1 sequence (Q63226 24-1007 D535E/A654T): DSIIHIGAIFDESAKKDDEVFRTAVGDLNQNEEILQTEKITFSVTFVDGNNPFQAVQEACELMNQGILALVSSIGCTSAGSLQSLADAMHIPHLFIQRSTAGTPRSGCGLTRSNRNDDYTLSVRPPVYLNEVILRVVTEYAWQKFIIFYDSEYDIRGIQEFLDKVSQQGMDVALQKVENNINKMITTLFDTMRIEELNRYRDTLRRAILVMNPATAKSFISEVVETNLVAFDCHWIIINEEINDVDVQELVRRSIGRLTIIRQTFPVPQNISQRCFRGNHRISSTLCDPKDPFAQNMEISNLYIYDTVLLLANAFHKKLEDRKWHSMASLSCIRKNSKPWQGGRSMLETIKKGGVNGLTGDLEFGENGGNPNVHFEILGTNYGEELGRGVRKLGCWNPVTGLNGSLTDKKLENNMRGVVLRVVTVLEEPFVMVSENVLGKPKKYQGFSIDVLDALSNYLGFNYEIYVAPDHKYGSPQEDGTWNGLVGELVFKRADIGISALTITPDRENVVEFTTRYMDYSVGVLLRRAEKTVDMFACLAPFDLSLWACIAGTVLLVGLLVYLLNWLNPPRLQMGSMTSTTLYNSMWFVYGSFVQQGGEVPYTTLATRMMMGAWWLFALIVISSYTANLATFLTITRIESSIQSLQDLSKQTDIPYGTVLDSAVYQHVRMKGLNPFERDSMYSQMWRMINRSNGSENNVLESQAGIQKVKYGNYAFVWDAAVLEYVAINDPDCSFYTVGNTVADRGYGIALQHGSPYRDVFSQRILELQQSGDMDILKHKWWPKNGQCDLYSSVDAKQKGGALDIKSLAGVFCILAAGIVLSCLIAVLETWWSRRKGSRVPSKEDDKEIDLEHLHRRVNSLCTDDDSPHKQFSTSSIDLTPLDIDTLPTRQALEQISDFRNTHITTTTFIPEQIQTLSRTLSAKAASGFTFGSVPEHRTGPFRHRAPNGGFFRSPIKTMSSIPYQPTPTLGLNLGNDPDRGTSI
Assay: TEVC of constitutive current, Xenopus oocytes expressing GluD2-A654T-D535E
Type: cell-based
Conditions: for Effect on constitutive current, in words: compared to GluD2-A654T
Source text: Human GluD1 (GRID1) and rat GluD2 (Grid2) cDNAs were introduced into the pGEM-HE and pCI-neo vectors. GRID1 (NM_017551.3) gene fragments were synthesized by Integrated DNA Technologies and cloned into empty vectors using InFusion cloning (Clontech). […] However, rat and human GluD2-encoding cDNA are identical in the M3 domain in which many of the variants we studied reside (see Supplementary Fig. S1). The full open reading frame for both constructs were verified by Sanger sequencing (Eurofins) and the full plasmid sequence was verified by whole plasmid sequencing (plasmidsaurus). Variant cDNA changes identified in patients were introduced into the cloned human GRID1 (NM_017551.3) in pGEM-HE and cloned rat Grid2 cDNA sequence (NM_024379.1) in pGEM-HE vector using Quikchange Lightning (Agilent) protocol according to the manufacturer’s instructions. Vectors were linearized and cRNA was synthesized using T7 RNA mMESSAGE kit (Invitrogen).
Xenopus laevis oocytes were prepared from ovaries purchased from Xenopus 1 (Dexter, MI) as previously described, [68] and incubated at 16°C in culture Barth’s solution (in mM) 88 NaCl, 2.4 NaHCO3, 1 KCl, 0.33 Ca(NO3)2, 0.41 CaCl2, 0.82 MgSO4, 10 HEPES, pH 7.4 with NaOH, supplemented with 1 U/ml penicillin and 1 μg/ml streptomycin. Oocytes were injected with approximately 5–40 ng RNA per oocyte and then incubated at 16–19°C for 1–3 days in culture Barth’s solution. […] Two-electrode voltage clamp (TEVC) recordings were performed as previously described. Unless otherwise specified, extracellular solution contained (in mM) 90 NaCl, 3 KCl, 0.5 BaCl2, 0.01 EDTA, 10 HEPES, and was brought to pH 7.4 with NaOH. The oocytes were placed in a dual track recording chamber and gravity perfused with solution exchange controlled via a computer-driven 8-valve positioner (Digital MVP Valve). […] Recording electrodes were filled with 0.3 M KCl, and currents were recorded with membrane voltage held at −40 mV. To establish constitutive activity of recombinant receptors when compared to wild type receptors, we used the oocyte recording solution described above, but with 90 mM N-methyl-D-glucamine (NMDG) chloride replacing 90 mM NaCl. […] For Ca^2+ concentration-response curves, choline chloride was used to maintain equimolar concentrations of Cl^− ions in the extracellular solution across the changing concentrations of calcium chloride. All compounds used in this study for concentration-response oocyte recordings were dissolved in deionized water as 50–100 mM stock solutions. In some rescue pharmacology experiments, we substituted 1 mM CaCl2 for 0.5 mM BaCl2 to evaluate Ca^2+-dependent control of receptor responses.
Data are represented as mean ± SEM. Statistical significance of logEC50 or logIC50 was determined by one-way analysis of variance (ANOVA) with a Dunnett’s multiple comparisons post-hoc test with a significance threshold of P < 0.05. Sample sizes were adjusted so that the power to detect an effect size of 1 was > 0.9 (GPower 3.1). All error bars on figures represent the SEM.

SMILES	Effect on constitutive current, in words	EC50 (modulation of constitutive current, inhibited by Ca2+ (not potentiated), read-out: Ca2+ EC50 [95% CI]) [mM]	Ca2+ % Max (NMDG+ − Na+) Mean ± SEM (normalized to NMDG+ − Na+ difference current)	D-serine % Max (NMDG+ − Na+) Mean ± SEM (percent of constitutive leak current (NMDG+/Na+ difference current))
[Ca+2] [Ca^2+]	weakly inhibited; also recorded: complete loss of Ca^2+ potentiation	5.6	70 ± 2.0 (15) %	
N[C@H](CO)C(=O)O [D-serine]	modestly reduced D-serine potency			60 ± 2.2 (15) %

Reference: paper PMC10840383, “Clinical features, functional consequences, and rescue pharmacology of missense GRID1 and GRID2 human variants” (Human Molecular Genetics, 2023)
